For 74 compounds, cytotoxicity results are on record in ChEMBL document CHEMBL3507680, “University of Dundee, Gates Library screen for HepG2 cell viability”.

The series is described as follows: Human HepG2 cell viability assay in 384 well format. The class given is toxicity, cell-based. More on the design: dose 125 nL, time 70.5 hour; concentration not given beside the values. The settings on record: HepG2 cells, read-out: Inhibition.

Each structure is given as a SMILES string.

Consider `NC(=O)CCC1CCCN(c2ccnc3cc(F)ccc23)C1` (centres undefined), for which the cytotoxicity at 70.5 h was -12.1%.

For `Cc1nc(C)c(S(=O)(=O)NC(=O)c2sccc2C)s1`, the cytotoxicity at 70.5 h was -14.3%. Turning to `COCCOc1ccc(CNC2CCc3ncnn3C2)cc1OC` (centres undefined), the cytotoxicity at 70.5 h was -9.82%. In the case of `CNc1snc(C)c1C(=O)NC(C)CC(=O)c1cccs1` (centres undefined), the cytotoxicity at 70.5 h was -14.5%. For the compound `CCc1ncnc(N2CCOCC2C2CC2)c1F` (centres undefined), the cytotoxicity at 70.5 h was -15.6%. Consider `Cc1ccc(N2CCCN(C(=O)CCCn3ccnc3C)CC2)nn1`, for which the cytotoxicity at 70.5 h was -0.226%. On to `COC(=O)c1ccc(N(C(=O)c2cccnc2C)C(C)C)c(C)c1`, for which the cytotoxicity at 70.5 h is -7.81%.

As for `N#CCCn1cnc2c(Br)cccc2c1=O`, the cytotoxicity at 70.5 h is -14.7%.

Turning to `O=C(NCc1ccc(OCC2CC2)nc1)C1COc2ccccc2O1` (centres undefined), the cytotoxicity at 70.5 h was -5.51%. For `CC(C)C(C)NC(=O)Nc1cccc(OCC#N)c1` (centres undefined) the value was -8.7%.

Consider `Cc1cccnc1NC(=O)c1ccc(F)c(S(=O)(=O)N2CCC2)c1`, for which the cytotoxicity at 70.5 h is -19.3%. For `O=C(NC1CCN(C2CC2)CC1)c1cn(-c2ccc(Cl)cc2)nn1`, the cytotoxicity at 70.5 h was -7.11%. The value for `Cc1ccnc(NC(=O)c2ccc(F)c(S(=O)(=O)NC3CC3)c2)c1` was -7.61%; that for `CCOc1ccc(NC(=O)NCCCN(C)S(C)(=O)=O)cc1C` was -15.1%; that for `NC(=O)CN(Cc1ncc(-c2ccccc2)o1)C1CCCC1` was -7.44%. `O=C(NC1CCN(C2CC2)C1)c1cn(-c2ccc(F)cc2)nn1` (centres undefined): the cytotoxicity at 70.5 h was -6.52%. `CC(C)(C)c1nc(CC(=O)NCCC(=O)Nc2ccncc2)cs1`: the cytotoxicity at 70.5 h came out at 5.09%. In the case of `CCOc1ccc(NC(=O)NCCS(=O)(=O)CC)cc1C`, the cytotoxicity at 70.5 h was -8.96%. With `O=C(NCc1ccnc(OCC2CC2)c1)C1Cc2ccccc2O1` (centres undefined), the cytotoxicity at 70.5 h was -4.48%. Regarding `O=C(NC1CCCN(Cc2c(F)cccc2F)C1)c1cnccn1` (centres undefined), the cytotoxicity at 70.5 h was 1.65%. Turning to `COC(=O)c1ccc(N(C(=O)c2cscn2)C(C)C)c(C)c1`, the cytotoxicity at 70.5 h is -4.28%. In the case of `CCOc1cc(NC(=O)N2CCOC3(CCC3)C2)ccc1C`, the cytotoxicity at 70.5 h was -5.84%. Turning to `CCOC(=O)N(C)C1CCN(Cc2cnc3ccccn23)CC1`, the cytotoxicity at 70.5 h was -4.79%.

With `CC(Cn1cncn1)NC(=O)Nc1ccc(COC2CCCC2)cc1` (centres undefined), the cytotoxicity at 70.5 h was -1.86%. For `CC(CCO)Nc1cccc(C(F)(F)F)n1` (centres undefined) the value was 3.64%; for `CC(C)c1ncc2c(n1)CN(Cc1ccc3c(c1)OCCO3)CC2`, 12.6%. With `CN(C1CCc2ccccc2C1)S(C)(=O)=O` (centres undefined), the cytotoxicity at 70.5 h is 0.716%. For `CC(CO)CSc1ncnc2[nH]ncc12` (centres undefined), the cytotoxicity at 70.5 h is -0.794%. Take `CC(C)COc1cncc(NC(CO)c2ccco2)n1` (centres undefined): the cytotoxicity at 70.5 h is 11.4%.

On to `CCOc1ccccc1N(C)C(=O)c1ccc(Cl)cn1`, for which the cytotoxicity at 70.5 h is 21.8%. On to `Cc1nn(C)c(C)c1OCC(=O)NCc1cccc(C(=O)O)c1`, for which the cytotoxicity at 70.5 h stood at 3.51%. As to `CSCC(CCO)Nc1cccc(C(F)(F)F)n1` (centres undefined), the cytotoxicity at 70.5 h was -1.51%. For `CC(C)C(=O)Nc1cc(C(C)(C)C)nn1-c1ccccn1`, the cytotoxicity at 70.5 h is -3.18%. Consider `c1cc(CN2CCc3cncnc3C2)c2c(c1)OCCO2`, for which the cytotoxicity at 70.5 h was -6.07%. With `CN(C)C(=O)c1ccccc1NCCCOc1cccc(C#N)c1`, the cytotoxicity at 70.5 h came to 13.1%. On to `Cc1cncc(NCC(O)c2ccco2)n1` (centres undefined), for which the cytotoxicity at 70.5 h is -9.53%. For `O=C(Nc1cccnc1)Nc1cccc(CN2CCC(O)CC2)c1` the value was 10.2%.

With `C1CC(c2noc(C3CC3)n2)CN(CCOCC2CC2)C1` (centres undefined), the cytotoxicity at 70.5 h came to 7.19%. On to `Cc1nc(C)n(CC2CCCCN2CCCN2CCCC2=O)n1` (centres undefined), for which the cytotoxicity at 70.5 h came out at 33.6%. As to `O=C(NCc1ccccc1CN1CCCC1)Nc1cccnc1`, the cytotoxicity at 70.5 h was -4.93%. Consider `CC(C)(C)NC(=O)CNC(=O)c1cccnc1Oc1cccnc1`, for which the cytotoxicity at 70.5 h is -6.52%. As for `c1coc(-c2nc(CN3CCOC(Cn4cccn4)C3)cs2)c1` (centres undefined), the cytotoxicity at 70.5 h stood at 29.1%. Regarding `O=C(CN1CCOC(Cn2cccn2)C1)NC1CCN(C2CC2)CC1` (centres undefined), the cytotoxicity at 70.5 h is -6.52%. On to `COc1cc(C)nc(N2CCN(C(=O)CCc3cccs3)CC2)n1`, for which the cytotoxicity at 70.5 h was -6.26%.

For `Cc1ccc(C(=O)NCc2ccc(N3CCNC(=O)C3)c(F)c2)cc1`, the cytotoxicity at 70.5 h was -0.234%.

For the compound `Cc1nc(C(=O)NCc2ccc(N3CCNC(=O)C3)c(F)c2)cs1`, the cytotoxicity at 70.5 h was -5.54%.

As for `O=C1CN(c2ccc(CNC(=O)c3cccnc3O)cc2F)CCN1`, the cytotoxicity at 70.5 h is -2.79%.

For the compound `COc1ncccc1CNC(=O)N(Cc1ccccc1F)C1CC1`, the cytotoxicity at 70.5 h is -0.0541%. The value for `CN(C)c1ncccc1CNC(=O)N(Cc1ccccc1F)C1CC1` was -4.47%; that for `O=C(NCc1ccncc1)N(Cc1ccc(F)cc1F)C1CC1` was -5.41%. The value for `O=C(NCc1ccccc1CN1CCC(O)CC1)Nc1ccccc1` was -0.116%. `CC(c1ccc(Cl)cc1)N1CCN(CCCS(C)(=O)=O)CC1` (centres undefined): the cytotoxicity at 70.5 h came to 1.48%. In the case of `CC(c1ccc(Cl)cc1)N1CCN(CCS(N)(=O)=O)CC1` (centres undefined), the cytotoxicity at 70.5 h is -0.779%. As to `CC(c1ccc(C(F)(F)F)cc1)N1CCN(CCS(C)(=O)=O)CC1` (centres undefined), the cytotoxicity at 70.5 h was -1.96%.

As for `O=C1CN(c2ccc(CNC(=O)c3ccc[nH]3)cc2F)CCN1`, the cytotoxicity at 70.5 h was determined as 1.47%. Turning to `CCN(CC1CCCO1)C(=O)Nc1cccc(N2CCOCC2)c1` (centres undefined), the cytotoxicity at 70.5 h is 0.519%. For the compound `COC(C)c1nc(CN2CCCNCC2)cs1` (centres undefined), the cytotoxicity at 70.5 h was -3.19%. Take `Cc1cccc(-c2noc(CN3CCC(c4ccn[nH]4)CC3)n2)c1`: the cytotoxicity at 70.5 h was -1.2%. In the case of `COCCn1cc(C(=O)N2CCCC2c2cccc(C)c2)ccc1=O` (centres undefined), the cytotoxicity at 70.5 h was -4.94%. For `c1cc(C2CCN(Cc3nc(C4CC4)no3)CC2)[nH]n1` the value was -6.11%. Turning to `CCN(C)S(=O)(=O)N1CCCC1CC(=O)c1cccs1` (centres undefined), the cytotoxicity at 70.5 h came to 32.3%.

For the compound `CCN(CC)S(=O)(=O)N1CCCC1CC(=O)c1cccs1` (centres undefined), the cytotoxicity at 70.5 h was -4.6%. For `COCc1noc(C2(c3ccc(F)cc3)CC2)n1`, the cytotoxicity at 70.5 h was determined as 12.6%. Regarding `CC(C)(C)c1nnc(CNc2cc(F)ccc2OCC2CCCO2)o1` (centres undefined), the cytotoxicity at 70.5 h is 32.8%. For `CCC(CNC(=O)c1ccccc1OC)N1CCc2ccccc2C1` (centres undefined) the value was 7.61%; for `CCC(CNC(=O)c1ccccc1Br)N1CCc2ccccc2C1` (centres undefined), -9.67%. Turning to `Cc1csc(CNC(=O)NCC(O)c2ccc(F)cc2)n1` (centres undefined), the cytotoxicity at 70.5 h was -12.5%. On to `CCC(CNC(=O)c1ccco1)N1CCc2ccccc2C1` (centres undefined), for which the cytotoxicity at 70.5 h is -12.8%.

For the compound `O=C(NCC1(N2CCOCC2)CCSC1)Nc1ccccn1` (centres undefined), the cytotoxicity at 70.5 h is -9.14%.

Take `Cc1ccc(CN(C(=O)NCc2nnc3n2CCCCC3)C2CC2)o1`: the cytotoxicity at 70.5 h was -10.9%. In the case of `O=C(NCc1nnc2n1CCC2)N(Cc1ccc(F)cc1)C1CC1`, the cytotoxicity at 70.5 h was -8.55%.

As for `CC(C)CCCC(C)NC(=O)c1ccc(OCC(N)=O)cc1` (centres undefined), the cytotoxicity at 70.5 h is -6.3%.

In the case of `O=C(CN1C(=O)c2ccccc2CS1(=O)=O)c1ccc(Cl)cc1`, the cytotoxicity at 70.5 h was 7.63%. For `O=C(NCc1nnc2n1CCCCC2)N(Cc1ccccn1)C1CC1`, the cytotoxicity at 70.5 h came out at 0.752%.
